Laboratory results from EP2626073A1, “Compound for use in the prevention and/or treatment of a neurogenerative disease or a disease involving an activation of phosphodiesterase-4 (PDE4)” (Harmonic Pharma, priority 2012, dated 2013).

Key:
PDE4 = PDE4 isolated enzyme two-step radioenzymatic PDE assay; type: biochemical; settings: 1 µM cAMP substrate, 30°C, 30 min; read-out: inhibition concentration value (IC50)
Rat cortical neurons = test: Aβ oligomer-induced neuronal death, MTT assay; type: cell-based, Wistar rat; settings: 24 h
Procedure: Cell culture: Cortical neurons from embryonic day 16-17 Wistar rat fetuses were prepared as follows. Dissociated cortical cells were plated at 4.5-5.0 10^4 cells/cm^2 in plastic dishes precoated with 1.5 mg/mL polyornithine (Sigma). Cells were cultured in a chemically defined Dulbecco's modified eagle's/F12 medium free of serum (Gibco) and supplemented with hormones, proteins and salts. Cultures were kept at 35°C in a humidified 5% CO2 atmosphere, and at 6-7 DIV, cortical population was determined to be at least 97% neuronal by immunostaining.
Preparation of low-n β-amyloid (Aβ) oligomers: The peptide used is Aβ1-42 from Bachem (ref H1368, batch number: 1025459). The oligomeric preparation contains a mixture of stable dimers, trimers and tetramers of Aβ1-42 peptide, as well as monomeric forms of the peptide.
Preparation of tivozanib solution: Tivozanib was dissolved in DMSO. A stock solution (10 mM DMSO) was prepared, and aliquots were stored at -20 °C before use.
Treatment and measurement of cell viability: All experiments were done in 48 well plates. […] Following 24h of incubation, neuronal viability was monitored using the MTT assay (Garcia et al., The Journal of Neuroscience, June 2,2010, 30(22), 7516-7527; Desbene et al., Neurobiology of Aging, 33 (2012) 1123.e17-1123.e-29). Data were obtained from one experiment with 4 determinations each and expressed as means + SD.

[1] = test system: cAMP level in HEK293 cells; test: Measurement of cAMP level by ELISA; type: cell-based
Procedure: Measurement of cAMP level: HEK293 cells were cultured in DMEM medium containing 10 % FCS. Cells were plated in 12-well plates at a density of 400.000 cells per well and cultured for 24h at 37°C in a humidified 6% CO2 atmosphere. Cells were then incubated for 1 h with increasing concentrations of tivozanib and then treated with vehicle or 25 µM forskolin for 15 minutes. Following washing steps and cell lysis, cellular level of cAMP level was monitored using an ELISA assay (Cyclic AMP XP assay kit - Cell signaling). Data are from 2 experiments performed in duplicate. Data are represented as fold increase of cAMP as compared to experiment using forskolin only, designed as 1.0 (figure 7).
Effects of tivozanib on cAMP level in HEK293 cells: In order to evaluate the potential effect of tivozanib on PDE4 activity in living cells, the HEK293 cell line was used. These cells are widely used for identification and validation of PDE4 modulators in mild as well as high throughput screening assays. Indeed, the control of cAMP level and hydrolysis in HEK293 cells are predominantly supported by PDE4.

Male C57BL/6 mice = test: Y-maze test of spatial working memory after icv Aβ oligomers; type: in vivo
Procedure: Animals: All animal experiments were carried out according to the National Institute of Health (NIH) guidelines for the care and use of laboratory animals, and approved by the French Ministry for Research and Technology. Animals were housed at a standard temperature (22±1°C) and in a light-controlled environment (lights on from 7 am to 8 pm) with ad libitum access to food and water. Upon arrival, Male C57BL/6 mice (C57BL/6J Rj, ref SC-CJ-12w-M, Janvier, France) were group housed. From 1 week before the experiment started and until the end of the experiment, mice were individually housed. Animals were monitored twice-a-day by laboratory personnel (8 am and 4 pm). […]
Surgery and intracerebroventricular (icv) infusion of low-n Aβ oligomers: Immediate spatial working memory performance was assessed by recording spontaneous alternation behavior in a Y-maze system, as previously described (Youssef et al., Neurobiology of Aging, 29 (2008) 1319-1333; Garcia et al., The Journal of Neuroscience, June 2,2010, 30(22) 7516-7527). […]
Investigation of the spatial working memory - Y maze test: Immediate spatial working memory performance was assessed by recording spontaneous alternation behavior in a Y-maze system, as previously described (Youssef et al., 2008; Garcia et al., 2010, see references above). […]

IC50 (PDE4) [µM] | Compound | Aβ oligomer-induced cell death (cell viability, MTT) (Rat cortical neurons; tivozanib up to 10 µM added simultaneously with 1 µM Aβ1-42 oligomers) | cAMP level ([1]; absence of forskolin, increasing concentrations up to 50 µM, 1 h) | cAMP level ([1]; presence of 25 µM forskolin for 15 minutes, increasing concentrations, 1 h pre-incubation) | behavior and spontaneous alternation performance (Male C57BL/6 mice; group C: 30 mg/kg/day per os, vehicle icv, test day +4) | spatial working memory (spontaneous alternation) (Male C57BL/6 mice; group D: 30 mg/kg/day per os day -2 to +4, Aβ oligomers 50 pmol icv day 0, test day +4) | decrease of cell viability (Rat cortical neurons; 1 µM Aβ1-42 oligomers alone, figure 6B CTRL) [%]
4.8 | COc1cc2nccc(Oc3ccc(NC(=O)Nc4cc(C)on4)c(Cl)c3)c2cc1OC [tivozanib, N-{2-chloro-4-[(6,7-dimethoxy-4-quinolyl)oxy]-phenyl}-N'-(5-methyl-3-isoxazolyl)urea] | protected cells towards Aβ oligomer-induced cell death | did not result in an increase of cAMP level | dose-response accumulation of cAMP | displayed a normal behavior | significantly improved spatial working memory | 
 | Aβ1-42 oligomers |  |  |  |  |  | ~40
